From US7018642B2 (The Procter & Gamble Company, priority 2001, dated 2006)

How the values were obtained:
Assay type in all cases: cell-based
[1] = test system: P. aeruginosa strain PAO1; assay: Biofilm prevention screen (96-well microplate, crystal violet); conditions: Pseudomonas aeruginosa, positive = prevention, negative = enhancement of biofilm formation, quadruplicate, read-out: average percentage reduction of biofilm formed relative to DMSO controls
Description: (§1) Overnight cultures of 3 mL are made of P. aeruginosa strain PAO1 (grown in R2A medium (Handbook of Microbiological Media; CRC Press, 1997, second edition, R. M. Atlas, ed.), modified to omit Mg^2+ but to include 0.3–0.5% fructose (pH 7.0) and 3 μM ferrous ammonium sulfate), P. fluorescens strain ATCC 13525 (grown in R2A modified to omit Mg^2+ but to include 0.3–0.5% sodium pyruvate (pH 7.0)), S. epidermidis strain ATCC 35984 (grown in a ¼ dilution of TSB (Handbook of Microbiological Media; CRC Press, 1997, second edition, R. M. Atlas, ed.) supplemented with 1% fructose (pH 7.0) and 3 μM ferrous ammonium sulfate). To each type of growth medium, HEPES (pH 7.3) is optionally added to a final concentration of 10 mM.
(§2) To PS, PVC, or PP (preferably PP or PVC) round-bottom, 96-well microplates containing 100 μl per well of the respective growth medium as described above, compounds to be tested (dissolved in DMSO) are added and mixed, to give a final concentration of 250–500 μM. These microplates then also are used to make successive dilutions of the compounds in the same respective growth medium to yield microplates containing final concentrations of, for example, 160 μM and 32 μM of the same set of compounds. Control wells are included in the dilution series that contain only DMSO. From the 3 ml overnight cultures, each of the three dilution plate sets is inoculated with 5 μl per well of a 1:1 dilution in the same liquid growth media of the appropriate culture. The covered plate is then incubated with shaking, at 30° C. (for P. aeruginosa or P. fluorescens) or 37° C. (for S. epidermidis), at 200 rpm, for 16–26 hours, in a humidity controlled environment.
(§3) Cells present in biofilm attached to the microplate surface are stained with CV either after removal of the liquid from each well, followed by rinsing three times (aspiration and addition) with 150 μl per well phosphate buffered saline solution (PBS) and final addition of 100 μl per well of PBS, or by direct addition of stain to bacterial cultures without rinsing. To 100 μl per well of PBS or of bacterial culture, 25 μl/well of 1% CV solution (in ˜10% ethanol) is added. After incubation at room temperature for 45 minutes, the dye solution is removed from the plates. Residual dye is immediately removed by gentle rinsing with a stream of deionized water by filling and inverting the plates 4–5 times, or by using an automated pipettor. Rinsed plates are air-dried at room temperature for 0.5–2 hours. Bound dye is extracted by the addition of 150 μL per well of 95% ethanol, followed by vigorous mixing for 10–15 seconds and incubation for 45 minutes at room temperature without shaking. Subsequently, either undiluted or diluted (in ethanol) samples of extracted CV are transferred to flat bottom, polystyrene microtiter plates and absorbances at 586 nm were measured in a microplate reader. Readings from wells containing compounds are compared to the average of data from control wells that contain only DMSO. Replicate samples are measured, and results are reported as averages of the replicate well data points.
(§4) Data are expressed in terms of the average percentage reduction of biofilm formed in the presence of each compound, relative to the DMSO controls, for quadruplicate samples. Assays are run using the three compound concentrations indicated. Positive numbers indicate prevention of biofilm formation by a compound, and negative numbers indicate enhancement of biofilm formation by a compound (percentage coefficients of variation are ≦10%).

[2] = test system: P. fluorescens strain ATCC 13525; assay: as above; conditions: Pseudomonas fluorescens, positive = prevention, negative = enhancement of biofilm formation, quadruplicate, read-out: average percentage reduction of biofilm formed relative to DMSO controls; for inhibition at 32 µM: ATCC13525, 32 μM; for inhibition at 160 µM: ATCC13525, 160 μM; for inhibition at 390 µM: ATCC13525, 390 μM
Description: as §1, §2, §3, §4

[3] = test system: S. epidermidis strain ATCC 35984; assay: as above; conditions: Staphylococcus epidermidis, positive = prevention, negative = enhancement of biofilm formation, quadruplicate, read-out: average percentage reduction of biofilm formed relative to DMSO controls; for inhibition at 32 µM: ATCC35984, 32 μM; for inhibition at 160 µM: ATCC35984, 160 μM; for inhibition at 390 µM: ATCC35984, 390 μM
Description: as §1, §2, §3, §4

[4] = test system: P. aeruginosa strain PAO1; assay: Improved biofilm dispersion screen (already-formed biofilms, crystal violet); conditions: Pseudomonas aeruginosa, 30 mM NaOH step, positive = dispersion, negative = enhancement of pre-existing biofilm, quadruplicate, read-out: average percentage reduction of biofilm relative to the two control values (dispersion)
Description: (§5) A modification of method disclosed in Reference Example 2, which greatly improves the sensitivity and reproducibility of the dispersion screen is hereby disclosed. […] In the modification described herein, compounds are added in the presence of the fresh liquid growth media, such that the resultant biofilms continue to grow, unless a test compound triggers their dispersion. Overnight cultures are made as above, and 100 μL of the appropriate liquid growth media are dispensed into duplicate 96 well microplates—in this fashion, two identical microplates are set up for each bacterial species to be assayed. Neither compounds nor DMSO are added prior to the inoculation of bacteria, and growth in the duplicate plates for 24 hours is allowed using the conditions specified in Reference Example 1. After growth of biofilm to be tested in the wells, cells present in biofilm attached to one of the duplicate microplates is stained with CV, quantitated as described in Reference Example 1, and the data for the entire plate averaged, resulting in a growth control value, t0. The remaining replicate of each microplate pairs is treated with compounds in DMSO, or DMSO alone for control wells, by first removing the cell suspensions from the wells, then adding fresh 100 μL volumes of the same appropriate liquid growth media, followed by direct addition and mixing of the compound DMSO solutions to give final compound concentrations of 390 μM. Incubation of the compound-containing microplates is then continued for an additional 22–26 hours using the same conditions described in Reference Example 1. Cell suspensions are then removed, 100 μL per well of a 0 mM NaOH (S. epidermidis), 20 mM NaOH (P. fluorescens), or 30 mM NaOH (P. aeruginosa) solution in PBS is added, and incubation at room temperature is allowed for 30 minutes. No addition of NaOH is made to the S. epidermidis suspension since a test assay indicated no amplification by base with S. epidermidis. The microplates are subsequently rinsed three times with 150 μL per well of PBS, followed by final liquid removal, staining with CV and quantitation as described in Reference Example 1. Data for each well that contained compound result in a compound value, R, and data for control wells that contained DMSO only are averaged to generate a second control value, t24. The effect of each compound tested on dispersion of the biofilm compared to the two control values is calculated thus: [formula] […] Data are expressed in terms of the average percentage reduction of biofilm formed in the presence of each compound, relative to the two control values, for quadruplicate samples. Assays are run as described above, using compound concentrations of 390 μM. Positive numbers indicate dispersion (reduction) of pre-existing biofilms by a compound, and negative numbers indicate enhancement (stimulation of growth) of pre-existing biofilms by a compound (percentage coefficients of variation are ≦15%).

[5] = test system: P. fluorescens strain ATCC 13525; assay: as above; conditions: Pseudomonas fluorescens, ATCC13525, 20 mM NaOH step, positive = dispersion, negative = enhancement of pre-existing biofilm, quadruplicate, read-out: average percentage reduction of biofilm relative to the two control values (dispersion)
Description: as §5

[6] = test system: S. epidermidis strain ATCC 35984; assay: as above; conditions: Staphylococcus epidermidis, ATCC35984, no NaOH, positive = dispersion, negative = enhancement of pre-existing biofilm, quadruplicate, read-out: average percentage reduction of biofilm relative to the two control values (dispersion)
Description: as §5

| Compound | inhibition at 32 µM [1] | inhibition at 160 µM [1] | inhibition at 390 µM [1] | inhibition at 32 µM [2] | inhibition at 160 µM [2] | inhibition at 390 µM [2] | inhibition at 32 µM [3] | inhibition at 160 µM [3] | inhibition at 390 µM [3] | inhibition at 390 µM [4] | inhibition at 390 µM [5] | inhibition at 390 µM [6] |
| --- | --- | --- | --- | --- | --- | --- | --- | --- | --- | --- | --- | --- |
| CCCCCCNC(=O)C1CCCN1C(C)=O (racemic) [Compound 7] | -13% | -20% | -13% | -11% | -30% | -32% | -10% | 6% | -11% | -6% | -4% | 0% |
| CCCCCCCCCCNC(=O)[C@@H]1CCN1 [Compound 289, (S)-(−)-2-azetidinecarboxylic acid n-decyl amide] | 9% | -2% | 77% | -8% | 45% | 99% | 39% | 101% | 101% | -54% | 19% | 84% |
| CCCCCCNC(=O)[C@H]1CCCN1C(=O)OC(C)(C)C [Compound 153] | -9% | -6% | -4% | 7% | 4% | -3% | -8% | -7% | -17% | -7% | 1% | -10% |
| CCCCCCCCNC(=O)[C@H]1CCCN1 [Compound 164] | 6% | 11% | 12% | 8% | 7% | 54% | -8% | -1% | -35% | 38% | 47% | -3% |
| CCCCCCCCCCNC(=O)C1CCCN1C(C)=O (stereo not drawn) [Compound 9] | -6% | -4% | -26% | -6% | -9% | 0% | -21% | -69% | 33% | -68% | -1% | 21% |
| CCCCCCNC(=O)[C@@H]1CCN1C(=O)OC(C)(C)C [Compound 283] | -7% | -10% | 0% | 3% | -1% | 13% | -3% | -10% | -23% | -11% | 0% | -11% |
| CCCCCCCCNC(=O)[C@H]1CCCCN1C(=O)OC(C)(C)C [Compound 22, (R)-(+)-1-(tert-Butoxycarbonyl)-2-piperidinecarboxylic acid n-octyl amide] | 0% | -8% | -6% | 3% | 27% | 25% | -6% | -17% | 3% | -54% | 0% | 0% |
| CCCCCCCCNC(=O)[C@H]1CCCN1C(=O)OC(C)(C)C [Compound 154] | -1% | -9% | -15% | 4% | 10% | 11% | -16% | -42% | 52% | -63% | 10% | 0% |
| CCCCCCCCNC(=O)[C@@H]1CCCCN1C(=O)OC(C)(C)C [Compound 19] | 10% | -2% | -17% | 6% | 8% | 10% | -11% | -33% | -11% | -25% | 0% | -3% |
